Columns and labels:
Vasopressin V2 = target: T1, Vasopressin V2 (Rattus norvegicus, UniProt Q00788); assay: Vasopressin V2 agonist effects of test compounds in normal conscious water-loaded rats; format: in vivo; details: oral dose of 10 mg/Kg, urine collected for four hours, Sprague-Dawley (CD) rats; for Urine Volume (% decrease): percent decrease in urine volume vs control; for Urinary Osmolality (% increase): percent increase in osmolality vs control
T1 construct: Vasopressin V2 Agonist Effects of Test Compounds in Normal Conscious Water-Loaded Rats; from tissue; host or cells: whole animal: conscious Sprague-Dawley rats (kidney collecting ducts in vivo)
Text: Vasopressin V2 Agonist Effects of Test Compounds in Normal Conscious Water-Loaded Rats
Male or female normotensive Sprague-Dawley rats (Charles River Laboratories, Inc., Kingston, N.Y.) of 350-500 g body weight were supplied with standard rodent diet (Purina Rodent Lab. Chow 5001) and water ad libitum. On the day of test, rats were placed individually into metabolic cages equipped with devices to separate the feces from the urine and containers for collection of urine. A test compound or a reference agent was given at an oral dose of 10 mg/Kg in a volume of 10 mL/Kg. The vehicle used was 2.5% preboiled corn starch in 20% dimethylsulfoxide (DMSO). Thirty minutes after dosing the test compound, rats were gavaged with water at 30 mL/Kg into the stomach using a feeding needle. During the test, rats were not provided with water or food. Urine was collected for four hours after dosing of the test compound. At the end of four hours, urine volume was measured. Urinary osmolality was determined using a Fiske One-Ten Osmometer (Fiske Associates, Norwood, Mass., 02062) or an Advanced CRYOMATIC Osmometer, Model 3C2 (Advanced Instruments, Norwood, Mass.). Determinations of Na^+, K^+ and Cl^− ion were carried out using ion specific electrodes in a Beckman SYNCHRON ELISE Electrolyte System analyzer. The urinary osmolality should increase proportionally. In the screening test, two rats were used for each compound. If the difference in the urine volume of the two rats was greater than 50%, a third rat was used.

T1 sequence (Q00788 whole entry): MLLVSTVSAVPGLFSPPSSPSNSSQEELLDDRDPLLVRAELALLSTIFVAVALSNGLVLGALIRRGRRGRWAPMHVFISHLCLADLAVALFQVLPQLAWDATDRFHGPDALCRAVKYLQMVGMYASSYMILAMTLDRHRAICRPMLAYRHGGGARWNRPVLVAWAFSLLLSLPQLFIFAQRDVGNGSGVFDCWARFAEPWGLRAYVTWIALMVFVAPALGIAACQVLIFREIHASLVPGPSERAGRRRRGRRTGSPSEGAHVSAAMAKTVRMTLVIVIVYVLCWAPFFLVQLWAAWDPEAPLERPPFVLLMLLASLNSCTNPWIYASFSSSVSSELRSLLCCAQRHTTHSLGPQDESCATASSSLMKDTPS

Structure (SMILES)	Urine Volume (% decrease) (Vasopressin V2) [%]	Urinary Osmolality (% increase) (Vasopressin V2) [%]	melting point [°C]
O=C(c1ccc(-c2ccccc2)cc1)N1Cc2cccnc2Nc2ccccc21 [Example 4, [1,1′-Biphenyl]-4-yl-(5,11-dihydro-benzo[b]pyrido[2,3-e][1,4]diazepin-6-yl)-methanone]	56	151	175 to 177
CN1c2ccccc2N(C(=O)c2ccc(-c3ccccc3)cc2)Cc2cccnc21 [Example 5, [1,1′-Biphenyl]-4-yl-(11-methyl-5,11-dihydro-benzo[b]pyrido[2,3-e][1,4]diazepin-6-yl)-methanone]	22	26	220 to 223
O=C(c1ccc(-c2ccccc2)cc1)N1Cc2ccccc2Nc2ccccc21 [Example 6, [1,1′-Biphenyl]-4-yl-(5,11-dihydro-10H-dibenzo[b,e][1,4]diazepin-10-yl)methanone]	87	247	180 to 182
O=C(c1ccc(-c2ccccc2)cc1)N1CCCCc2sccc21 [Example 8, [1,1′-Biphenyl]-4-yl-(5,6,7,8-tetrahydro-thieno[3,2-b]azepin-4-yl)-methanone]	35	73	164 to 166
COc1ccc(-c2ccc(C(=O)N3Cc4cccn4Cc4ccccc43)c(C)c2)cc1 [Example 10, (5H,11H-Benzo[e]pyrrolo[1,2-a][1,4]diazepin-10-yl)-(4′-methoxy-3-methyl-[1,1′-biphenyl]-4-yl)-methanone]	60	234	–

The next lines start with the values.

Urine Volume (% decrease) (Vasopressin V2) [%]	Urinary Osmolality (% increase) (Vasopressin V2) [%]	melting point [°C]	Structure (SMILES)
67	163	145 to 147	COc1ccccc1-c1ccc(C(=O)N2Cc3cccn3Cc3ccccc32)cc1 [Example 1, (2′-Methoxy-[1,1′-biphenyl]-4-yl)-(5H,11H-pyrrolo[2,1-c][1,4]benzodiazepin-10-yl)-methanone]
27	33	128 to 130	Cc1cccc(-c2ccc(C(=O)N3Cc4cccn4Cc4ccccc43)cc2)c1 [Example 2, (10,11-Dihydro-5H-pyrrolo[2,1-c][1,4]benzodiazepin-10-yl)-(3′-methyl-[1,1′-biphenyl]-4-yl)-methanone]
18	78	187 to 189	COc1ccc(-c2ccc(C(=O)N3Cc4cccn4Cc4ccccc43)cc2)cc1 [Example 3, (10,11-Dihydro-5H-pyrrolo[2,1-c][1,4]benzodiazepin-10-yl)-(4′-methoxy[1,1′-biphenyl]-4-yl)-methanone]
70	189	198 to 201	CN1c2ccccc2CN(C(=O)c2ccc(-c3ccccc3)cc2)c2ccccc21 [Example 7, [1,1′-Biphenyl]-4-yl-(5-methyl-5,11-dihydro-10H-dibenzo[b,e][1,4]diazepin-10-yl)methanone]
62	156	171 to 174	O=C(c1ccc(-c2ccccc2)nc1)N1Cc2cccn2Cc2ccccc21 [Example 9, (5H,11H-Benzo[e]pyrrolo[1,2-a][1,4]diazepin-10-yl)-(6-phenyl-pyridin-3-yl)-methanone]
